The values that follow come from PubChem BioAssay (NCI).

SMILES strings stand for the structures.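 Exposure lasted 48 hours, with cells grown in 96-well plates and compounds tested at five concentrations. GI50 marks 50% less growth. TGI denotes the concentration required for complete inhibition of growth.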

Assay in all cases: DTP human tumour cell line panel, 48 h
Test [1] deals with NCI/ADR-RES ovarian.
For test [2], the system named is RXF 393 renal.
Test [3] relates to MDA-MB-435.
For test [4], the system named is A498 renal.
For test [5], the system named is NCI-H226 lung.
The test system of test [6] is ACHN renal.
For test [7], the system named is MOLT-4 leukemia.
Test [8] concerns HCT-15 colon.
Test [9] deals with SN12C renal.
Test [10] relates to SNB-19 CNS.

As to `C1CC2CN(CCCN3CCOCC3)C(C1)O2` (stereo not given), the TGI in test [1], in test [2], in test [3], in test [4], in [5] and in test [6] was greater than 100 µM each time. For the same molecule, the TGI in test [7], in [8], in [9] and in test [10] was greater than 100 µM throughout.
Take `O=P1(S)OC[C@H]2O[C@@H]3[C@H](F)[C@@H]2OP(O)(=S)OC[C@H]2O[C@H]([C@H](F)[C@@H]2O1)n1cnc2c(ncnc21)NC/C=C/CNc1ncnc2c1ncn23` (stereo not given in full): the GI50 in [1] is greater than 100 µM; in test [2], 0.764 µM; in test [3], greater than 100 µM; in [4], 0.543 µM; in [5], 0.652 µM; in test [6] it was greater than 100 µM. In addition, the GI50 in test [7], in test [8], in [9] and in test [10] was greater than 100 µM each time. In addition, the TGI in test [1] was greater than 100 µM; in test [2], greater than 100 µM; in test [3], greater than 100 µM; in [4], 11.5 µM; in test [5], greater than 100 µM; in test [6] it was greater than 100 µM. Moreover, the concentration for total growth inhibition (TGI) in [7], in test [8], in test [9] and in test [10] was greater than 100 µM throughout.
In the case of `NN=C(CC(O)(C(F)(F)Cl)C(F)(F)Cl)CC(O)(C(F)(F)Cl)C(F)(F)Cl`, the TGI in test [1], in test [2], in test [3], in test [4], in [5] and in test [6] was greater than 10 µM in each case. Moreover, the TGI in [7], in test [8], in [9] and in test [10] was greater than 10 µM in each case.
As for `CN(C)c1nc2ccccc2c2c1c1c(n2Cc2ccccc2)-c2ccccc2C1=O`, the GI50 in test [1], in test [2], in test [3], in test [4], in [5] and in [6] was greater than 100 µM in each case. Also, the GI50 in [7] is 25.5 µM; in test [8] it was greater than 100 µM; in test [9], greater than 100 µM; in test [10], greater than 100 µM. Further, the TGI in test [1], in test [2], in test [3], in test [4], in test [5] and in [6] was greater than 100 µM in each case. In addition, the TGI in test [7], in test [8], in test [9] and in [10] was greater than 100 µM each time.
In the case of `COc1cc(NC(=O)CCSc2nc3ccc(C)cc3c(=O)n2Cc2ccccc2)cc(OC)c1OC`, the GI50 was 9.25 µM in test [1]; 3.48 µM in test [2]; greater than 100 µM in test [3]; 15.8 µM in test [4]; 2.66 µM in test [5]; 3.72 µM in [6]. The GI50 in test [7] is greater than 100 µM; in test [8], greater than 100 µM; in [9], 78 µM; in test [10], 3.17 µM. The TGI in test [1] was greater than 100 µM; in test [2], 16.6 µM; in [3], greater than 100 µM; in test [4], 60 µM; in test [5] it was 12.3 µM; in test [6] it was 34.9 µM. Moreover, the TGI in test [7] was greater than 100 µM; in [8], greater than 100 µM; in [9], greater than 100 µM; in test [10], 18.5 µM.
`O=c1/c(=C\c2ccc(F)cc2)sc2n1C(c1ccc(F)cc1)C1=C(N=2)c2ccc3ccccc3c2OCC1` (stereo not given): the GI50 in [1], in test [2], in test [3], in test [4], in test [5] and in test [6] was greater than 100 µM each time. Moreover, the GI50 is greater than 100 µM in test [7], 7.17 µM in test [8], greater than 100 µM in test [9] and greater than 100 µM in test [10]. Also, the TGI in [1], in test [2], in [3], in [4], in [5] and in [6] was greater than 100 µM in each case. The TGI in [7], in test [8], in [9] and in test [10] was greater than 100 µM throughout.
Regarding `Cc1c2c(c(C)c3c4c(oc13)CCCC4)C=NCC2`, the TGI in [1] is 31.2 µM; in test [2], 15.9 µM; in test [3], 29.3 µM; in [4] it was 31.9 µM; in [5], 31.5 µM; in [6], 37.7 µM. Moreover, the TGI in [7] was found to be 45.1 µM; in test [8] it was 34.4 µM; in [9], 31.7 µM; in test [10] it was 53.5 µM.
On to `COc1cc2c(cc1OCCCCCCN1CCN(CC(=O)Nc3ccc(Cl)cc3C(=O)c3ccccc3Cl)CC1)N=CC1CCCN1C2=O` (stereo not given), for which the GI50 in [1] is 0.733 µM; in test [2] it was 0.168 µM; in test [3], 0.157 µM; in test [4], 0.535 µM; in test [5], 0.575 µM; in [6] it was 0.3 µM. For the same molecule, the GI50 was 0.167 µM in test [7], 0.518 µM in test [8], 0.298 µM in test [9] and 0.244 µM in [10]. Further, the TGI in test [1] was determined as 2.48 µM; in test [2] it was 0.324 µM; in [3], 0.304 µM; in test [4] it was 1 µM; in [5] it was 1.45 µM; in test [6], 0.765 µM. Further, the TGI in [7] worked out at 0.426 µM; in [8], 1.18 µM; in [9] it was 1.08 µM; in [10], 0.632 µM.
On to `O=C(Nn1c(-c2ccccc2)nc2ccccc2c1=O)c1ccccc1O`, for which the TGI in [1], in [2], in [3], in test [4], in test [5] and in test [6] was greater than 100 µM throughout. Also, the TGI in test [7], in [8], in [9] and in test [10] was greater than 100 µM in each case.

The term TGI denotes the concentration giving total growth inhibition. Read a high TGI as less potent growth arrest. As a reminder, the GI50 is the concentration that inhibits growth by half.
